Assay results taken from ChEMBL document CHEMBL3217500, “Identification of a novel nanomolar inhibitor of hIcmt via a carboxylate replacement approach” (Medchemcomm, 2012).
Calls of active or inactive are those of the source. The calls are words filed in the database; no cut-off is given here.

Legend:
[1] = biological target: T1, Protein-S-isoprenylcysteine O-methyltransferase (Homo sapiens, UniProt O60725); assay: Inhibition of human isoprenylcysteine carboxyl methyltransferase using [14C]SAM and N-acetyl-S-farnesyl-L-cysteine as substrate at 10 uM after 30 mins by vapor diffusion assay
T1 sequence (O60725 whole entry, the tested form may be a part): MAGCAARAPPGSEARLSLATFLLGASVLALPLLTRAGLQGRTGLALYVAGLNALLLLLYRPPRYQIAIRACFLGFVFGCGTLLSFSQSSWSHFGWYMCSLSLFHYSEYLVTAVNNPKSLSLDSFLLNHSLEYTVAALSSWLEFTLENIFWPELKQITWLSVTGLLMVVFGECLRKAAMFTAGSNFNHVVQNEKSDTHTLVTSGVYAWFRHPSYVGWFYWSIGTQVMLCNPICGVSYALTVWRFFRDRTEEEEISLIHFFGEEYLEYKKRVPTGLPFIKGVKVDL

[2] = biological target: T1, Protein-S-isoprenylcysteine O-methyltransferase; assay: Activity at human isoprenylcysteine carboxyl methyltransferase using [14C]SAM by vapor diffusion assay relative to AFC
[3] = biological target: T1, Protein-S-isoprenylcysteine O-methyltransferase; assay: Inhibition of human isoprenylcysteine carboxyl methyltransferase using [14C]SAM and N-acetyl-S-farnesyl-L-cysteine as substrate after 30 mins by vapor diffusion assay
[4] = biological target: T1, Protein-S-isoprenylcysteine O-methyltransferase; assay: Competitive inhibition of human isoprenylcysteine carboxyl methyltransferase using [14C]SAM and N-acetyl-S-farnesyl-L-cysteine as substrate by Lineweaver-Burk plot analysis
[5] = biological target: T1, Protein-S-isoprenylcysteine O-methyltransferase; assay: Inhibition of isoprenylcysteine carboxyl methyltransferase in human Jurkat cells assessed as mislocalization of GFP-K-Ras at 10 uM after 24 hrs by fluorescence microscopic analysis; assay type: cell-based
[6] = biological target: T1, Protein-S-isoprenylcysteine O-methyltransferase; assay: Un-competitive inhibition of human isoprenylcysteine carboxyl methyltransferase using [14C]SAM and N-acetyl-S-farnesyl-L-cysteine as substrate by Lineweaver-Burk plot analysis
[7] = biological target: T1, Protein-S-isoprenylcysteine O-methyltransferase; assay: Inhibition of isoprenylcysteine carboxyl methyltransferase in human Jurkat cells assessed as mislocalization of GFP-K-Ras at 45 uM after 24 hrs by fluorescence microscopic analysis; assay type: cell-based

With CC(C)=CCC/C(C)=C/CC/C(C)=C/CSc1ccccc1C(=O)O the inhibition [1] was 40%.

With CC(C)=CCC/C(C)=C/CC/C(C)=C/CSCCO the Activity [2] was “inactive”, the IC50 [3] was 860 nM and the Kic [4] was 0.44 µM. For the same molecule, the inhibition [5] was “Active”, the Kiuc [6] was 0.43 µM and the inhibition [1] was 93%.

COCCSC/C=C(\C)CC/C=C(\C)CCC=C(C)C was tested, and the Activity [2] was “inactive” and the inhibition [1] was 0%.

COC(=O)CSC/C=C(\C)CC/C=C(\C)CC/C=C(\C)CCC=C(C)C was tested, and the Activity [2] was “inactive” and the inhibition [1] was 12%.

With CC(C)=CCC/C(C)=C/CC/C(C)=C/CSCC(=O)O the Activity [2] was “inactive” and the inhibition [1] was 50%.

COC(=O)C(F)(F)SC/C=C(\C)CC/C=C(\C)CCC=C(C)C was tested, and the Activity [2] was “inactive” and the inhibition [1] was 68%.

COC(=O)CSC/C=C(\C)CC/C=C(\C)CCC=C(C)C was tested, and the Activity [2] was “inactive” and the inhibition [1] was 28%.

For CCOP(=O)(CCCSC/C=C(\C)CC/C=C(\C)CCC=C(C)C)OCC, the Activity [2] was “inactive” and the inhibition [1] was 20%.

With CCOP(=O)(CCSC/C=C(\C)CC/C=C(\C)CCC=C(C)C)OCC the Activity [2] was “inactive” and the inhibition [1] was 36%.

With CC(C)=CCC/C(C)=C/CC/C(C)=C/CSCC(C)O (configuration not stated) the Activity [2] was “inactive” and the inhibition [1] was 72%.

CC(C)=CCC/C(C)=C/CC/C(C)=C/CSC(C)(C)CO was tested, and the Activity [2] was “inactive” and the inhibition [1] was 32%.

CC(C)=CCC/C(C)=C/CC/C(C)=C/CC/C(C)=C/CSCCO was tested, and the Activity [2] was “inactive” and the inhibition [1] was 40%.

With COC(=O)CCSC/C=C(\C)CC/C=C(\C)CCC=C(C)C the Activity [2] was “inactive” and the inhibition [1] was 14%.

With CC(C)=CCC/C(C)=C/CC/C(C)=C/CSCCN=[N+]=[N-] the Activity [2] was “inactive” and the inhibition [1] was 11%.

For CC(C)=CCC/C(C)=C/CC/C(C)=C/CSCC=O, the Activity [2] was “inactive” and the inhibition [1] was 13%.

CC(C)=CCC/C(C)=C/CC/C(C)=C/CSC(C)(C)C(=O)O was tested, and the Activity [2] was “inactive” and the inhibition [1] was 27%.

Molecule CC(C)=CCC/C(C)=C/CC/C(C)=C/CSCCC(=O)O has an Activity [2] of 50% and an inhibition [1] of 28%.

CC(C)=CCC/C(C)=C/CC/C(C)=C/CCSCCO was tested, and the Activity [2] was “inactive” and the inhibition [1] was 20%.

CC(=O)OCCSC/C=C(\C)CC/C=C(\C)CCC=C(C)C was tested, and the Activity [2] was “inactive” and the inhibition [1] was 27%.

CC(C)=CCC/C(C)=C/CC/C(C)=C/CSC(F)(F)CO was tested, and the Activity [2] was “inactive” and the inhibition [1] was 44%.

With CC(C)=CCC/C(C)=C/CC/C(C)=C/CSCC(O)CO (configuration not stated) the Activity [2] was “inactive” and the inhibition [1] was 75%.

CC(C)=CCC/C(C)=C/CC/C(C)=C/CSC(C)C was tested, and the Activity [2] was “inactive” and the inhibition [1] was 0%.

For CC(C)=CCC/C(C)=C/CC/C(C)=C/CSCCN, the Activity [2] was “inactive” and the inhibition [1] was 6%.

CC(C)=CCC/C(C)=C/CC/C(C)=C/CSCCC(=O)NO was tested, and the Activity [2] was “inactive” and the inhibition [1] was 22%.

With COC(=O)CSCC/C=C(\C)CC/C=C(\C)CCC=C(C)C the Activity [2] was “inactive” and the inhibition [1] was 12%.

For CC(C)=CCC/C(C)=C/CC/C(C)=C/CSCCS, the Activity [2] was “inactive” and the inhibition [1] was 0%.

CC(=O)CSC/C=C(\C)CC/C=C(\C)CCC=C(C)C was tested, and the Activity [2] was “inactive” and the inhibition [1] was 25%.

With CCOC(=O)NCCSC/C=C(\C)CC/C=C(\C)CCC=C(C)C the Activity [2] was “inactive” and the inhibition [1] was 10%.

For CC(C)=CCC/C(C)=C/CC/C(C)=C/CSCCCO, the Activity [2] was “inactive” and the inhibition [1] was 34%.

CC(=O)SC/C=C(\C)CC/C=C(\C)CCC=C(C)C was tested, and the Activity [2] was “inactive” and the inhibition [1] was 3%.

With CC(C)=CCC/C(C)=C/CC/C(C)=C/CSCC1OCCO1 the Activity [2] was “inactive” and the inhibition [1] was 9%.

CC(C)=CCC/C(C)=C/CC/C(C)=C/CSCC(N)=O was tested, and the Activity [2] was “inactive” and the inhibition [1] was 47%.

CCCSC/C=C(\C)CC/C=C(\C)CCC=C(C)C was tested, and the Activity [2] was “inactive” and the inhibition [1] was 0%.

CC(C)=CCC/C(C)=C/CSCC(=O)O was tested, and the Activity [2] was “inactive” and the inhibition [1] was 0%.

COC(=O)C(C)(C)SC/C=C(\C)CC/C=C(\C)CCC=C(C)C was tested, and the Activity [2] was “inactive” and the inhibition [1] was 8%.

In the case of COC(=O)CSC/C=C(\C)CCC=C(C)C, the Activity [2] is reported as “inactive” and the inhibition [1] is reported as 0%.

CC(C)=CCC/C(C)=C/CC/C(C)=C/CSCC(=O)NO was tested, and the Activity [2] was “inactive” and the inhibition [1] was 36%.

In the case of CC(C)=CCC/C(C)=C/CSCCO, the Activity [2] is reported as “inactive” and the inhibition [1] is reported as 0%.

CC(C)=CCC/C(C)=C/CC/C(C)=C/CSCCCBr was tested, and the Activity [2] was “inactive” and the inhibition [1] was 9%.

With CCC(C)(C)C(=O)O[C@H]1C[C@@H](C)C=C2C=C[C@H](C)[C@H](CC[C@@H]3C[C@@H](O)CC(=O)O3)[C@H]21 the inhibition [7] was “Active”.
